Entries after “also recorded” stand apart in the source; their conditions may differ. Where two headings read alike, the source gives them in different places.
How the values were obtained:
[1] = tested on: A/H5N1 (FL22, A/bald eagle/FL/W22-114/2022) pseudovirus; assay: organism not typed; type: cell-based, influenza A virus; details: read-out: EC50 for A/H5N1 (FL22) pseudovirus entry
[2] = tested on: H1 HA protein (strain A/California/06/09); type: biochemical, influenza A virus
[3] = tested on: A/H1N1 (Virg09) pseudovirus; assay: organism not typed; type: cell-based, influenza A virus; details: for EC50: MDCK, 72 h, read-out: EC50 for A/H1N1 (Virg09) pseudovirus entry
[4] = tested on: A/H1N1 virus A/Virginia/ATCC3/2009 (Virg09); assay: microbe, parasite or virus in culture; type: cell-based, influenza A virus
MDCK cells = details: for Cytotoxicity MCC, Microscopy: dog
[5] = tested on: A/H1N1 virus Virg09 in Calu-3 cells; assay: microbe, parasite or virus in culture; type: cell-based; details: Influenza A virus, H1N1, Calu-3, 72 h, read-out: EC50 in Calu-3 cells infected with Virg09
[6] = tested on: A/H1N1 virus A/PR/8/34 (PR8); assay: microbe, parasite or virus in culture; type: cell-based; details: Influenza A virus, MDCK
A/H5N1 pseudovirus = details: read-out: EC50 against A/H5N1 pseudovirus; cited from earlier work
A/H5N1 virus = details: read-out: EC50 against A/H5N1 virus; cited from earlier work
A/H1N1 virus = assay: microbe, parasite or virus in culture; type: cell-based, influenza A virus; details: for EC50: Influenza A virus, H1N1, MDCK, read-out: Antiviral EC50 against A/H1N1 virus
in vitro = details: dog
[7] = tested on: H5 HA (strain A/duck/Hunan/795/2002); type: cell-based, influenza A virus
H1 HA = H1 HA (Influenza A virus, UniProt C3W5S1); assay: cell-based
[8] = Influenza A virus, MDCK, read-out: Antiviral EC50 against A/H1N1 virus, Virg09 strain, MTS
[9] = Influenza A virus, MDCK, read-out: Antiviral EC50 against A/H1N1 virus, Virg09 strain, Microscopy
[10] = read-out: Antiviral EC50 against A/H1N1 virus, PR8 strain, MTS
[11] = read-out: Antiviral EC50 against A/H1N1 virus, PR8 strain, Microscopy
[12] = Influenza A virus, MDCK, read-out: Antiviral EC50 for Virg09 virus
[13] = read-out: Antiviral EC50 against A/H1N1 virus, Virg09 strain, MTS
[14] = read-out: Antiviral EC50 for PR8 virus

Chain of H1 HA (C3W5S1 18-344 limits assumed): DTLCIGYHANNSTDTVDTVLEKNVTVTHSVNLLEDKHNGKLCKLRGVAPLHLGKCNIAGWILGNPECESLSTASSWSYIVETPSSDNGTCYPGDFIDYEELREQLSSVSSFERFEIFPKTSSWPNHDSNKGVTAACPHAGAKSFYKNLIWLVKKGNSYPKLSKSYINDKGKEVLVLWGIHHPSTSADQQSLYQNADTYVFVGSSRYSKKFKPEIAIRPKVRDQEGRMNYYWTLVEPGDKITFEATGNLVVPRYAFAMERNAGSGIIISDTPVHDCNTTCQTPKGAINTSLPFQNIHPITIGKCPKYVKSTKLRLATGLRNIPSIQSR
Chain of H1 HA (C3W5S1 345-566 limits assumed): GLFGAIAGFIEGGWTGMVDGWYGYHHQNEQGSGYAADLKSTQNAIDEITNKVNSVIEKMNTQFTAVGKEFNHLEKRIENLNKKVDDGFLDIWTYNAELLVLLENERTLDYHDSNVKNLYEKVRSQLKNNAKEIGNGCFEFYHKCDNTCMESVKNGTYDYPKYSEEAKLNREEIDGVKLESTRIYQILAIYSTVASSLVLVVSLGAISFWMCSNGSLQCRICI

| Structure (SMILES) | EC50 [4, 8] [nM] | EC50 [4, 9] [nM] | Cytotoxicity MCC, Microscopy (MDCK cells) [µM] | EC50 [6, 10] [nM] | EC50 [6, 11] [nM] | EC50 [4, 12] [nM] | CC50 (in vitro) [µM] | EC50 [6, 14] [nM] | Antiviral activity against A/H1N1 virus (in words) (A/H1N1 virus) | also measured |
| --- | --- | --- | --- | --- | --- | --- | --- | --- | --- | --- |
| CCOC(=O)c1c(CSc2ccccc2)n(C)c2cc(Br)c(O)c(CN(C)C)c12 [Arbidol, reference compound] | – | – | – | – | – | – | – | – | – | EC50 ([1]; MDCK, 72 h): 10 µM; Binding of H1 HA to stem antibody C179 after acidic incubation (pH 5.2) in presence of compound [2]: only slightly protected; Fold lower potency than VF-57a in pseudovirus entry [3]: ~20 fold; EC50 [3]: 15000 nM |
| O=C1c2c(O)c(=O)ccn2N([C@@H]2c3ccccc3SCc3c2ccc(F)c3F)[C@@H]2COCCN12 [BXA, baloxavir acid] | 3.2 ± 0.4 | 3.5 | >0.1 | 6.1 ± 1.7 | 6.1 ± 2 | – | – | – | – | EC50 [5]: 1.1 nM |
| O=C(NCCc1cccs1)c1cc(F)cc(C(F)(F)F)c1 [Compound 20] | – | – | – | – | – | – | – | – | – | EC50 (A/H5N1 pseudovirus): 220 nM |
| Cc1cc(CNS(=O)(=O)c2ccc(C#N)cc2)c(C)s1 [Compound 21] | – | – | – | – | – | – | – | – | – | EC50 (A/H5N1 virus): 470 nM |
| Cc1cc(CNC(=O)c2cc(F)cc(C(F)(F)F)c2)c(C)s1 [Compound 22, N-[(2,5-Dimethylthiophen-3-yl)methyl]-3-fluoro-5-(trifluoromethyl)benzamide] | 400 | 1700 ± 1100 | >100 | 1100 ± 300 | 1500 ± 600 | ~1000 | > 100 | ~1000 | – | ΔΔG (exp), change VF-57a → labelled compound [4]: 0.2 kcal/mol; ΔΔG (exp), change labelled compound → VF-57a [4]: –0.2 kcal/mol; EC50 [4, 13]: 440 ± 190 nM; Cytotoxicity at 100 μM (in words) (MDCK cells): without showing any cytotoxicity; Selectivity index (ratio of CC50 to EC50, SI) (A/H1N1 virus): > 100 |
| Cc1cc(CNC(=O)c2cc(Cl)cc(C(F)(F)F)c2)c(C)s1 [Compound 23, 3-Chloro-N-[(2,5-dimethylthiophen-3-yl)methyl]-5-(trifluoromethyl)benzamide] | 300 | 710 ± 450 | >100 | 920 ± 190 | 1100 ± 200 | 500 | > 100 | 1000 | – | EC50 [4, 13]: 310 ± 120 nM; EC50 ([1]; MDCK, 72 h): 0.8 µM; EC50 [1]: 0.81 µM; EC50 [5]: 840 nM; EC50 (A/H1N1 virus): ~800 nM; Binding of H1 HA to stem antibody C179 after acidic incubation (pH 5.2) in presence of compound [2]: remained significantly higher; Effect of compound binding to HA (exposed to pH 7) on subsequent binding of antibody C179 ([2]; pH 7): no effect; Inhibition of H5 HA cell-cell fusion at 6.3 μM [7]: partial; Inhibition of H5 HA cell-cell fusion at 25 μM [7]: almost complete; Inhibition of H5 HA cell-cell fusion at 100 μM [7]: complete inhibition; EC50 (H1 HA): 950 nM; EC50 [3]: 300 nM |
| Cc1cc(CNC(=O)c2cc(C(F)(F)F)cc(C(F)(F)F)c2)c(C)s1 [Compound 25, N-[(2,5-Dimethylthiophen-3-yl)methyl]-3,5-bis(trifluoromethyl)benzamide] | – | – | – | – | – | > 100000 | – | > 100000 | abolished the antiviral activity | – |
| Cc1cc(Cl)cc(C(=O)NCc2cc(C)sc2C)c1 [Compound 29, 3-Chloro-N-[(2,5-dimethylthiophen-3-yl)methyl]-5-methylbenzamide] | – | – | – | – | – | > 100000 | – | > 100000 | No activity | – |
| Cc1cc(CNC(=O)c2cc(C(F)(F)F)c(F)c(F)c2F)c(C)s1 [Compound 36, N-((2,5-Dimethylthiophen-3-yl)methyl)-2,3,4-trifluoro-5-(trifluoromethyl)benzamide] | – | – | – | – | – | > 100000 | – | > 100000 | abolished the antiviral effect | – |
| Cc1cc(CNC(=O)c2cc(C(F)(F)F)cc(Cl)c2F)c(C)s1 [Compound 37, 3-Chloro-N-((2,5-dimethylthiophen-3-yl)methyl)-2-fluoro-5-(trifluoromethyl)benzamide] | > 100000 | > 100000 | 56 ± 22 | 2900 | 1600 ± 800 | – | > 100 | – | less active | – |
| Cc1cc(CNC(=O)c2cc(Cl)c(F)c(C(F)(F)F)c2)c(C)s1 [Compound 38, 3-Chloro-N-((2,5-dimethylthiophen-3-yl)methyl)-4-fluoro-5-(trifluoromethyl)benzamide] | 100 | 3100 ± 500 | 40 | 270 ± 120 | 1600 ± 800 | – | > 100 | – | good antiviral activity | ΔΔG (exp), change VF-57a → labelled compound [4]: –0.3 kcal/mol; ΔΔG (exp), change labelled compound → VF-57a [4]: 0.3 kcal/mol; EC50 [4, 13]: 180 ± 40 nM |
| Cc1cc(CNC(=O)c2cc(Cl)cc(C(F)(F)F)c2Cl)c(C)s1 [Compound 39, 2,5-Dichloro-N-((2,5-dimethylthiophen-3-yl)methyl)-3-(trifluoromethyl)benzamide] | 820 ± 610 | 8100 ± 500 | 52 ± 25 | 5900 ± 3200 | 11000 ± 6000 | – | > 100 | – | less active | – |
| Cc1cc(COC(=O)c2cc(F)cc(C(F)(F)F)c2)c(C)s1 [Compound 63, (2,5-Dimethylthiophen-3-yl)methyl 3-fluoro-5-(trifluoromethyl)benzoate] | – | – | – | – | – | > 100000 | – | > 100000 | Neither the ester 63 nor the secondary amine 64 showed antiviral activity; also recorded: inactive | – |
| Cc1cc(CNCc2cc(F)cc(C(F)(F)F)c2)c(C)s1 [Compound 64, 1-(2,5-Dimethylthiophen-3-yl)-N-(3-fluoro-5-(trifluoromethyl)benzyl)methanamine] | – | – | – | – | – | > 100000 | – | > 100000 | Neither the ester 63 nor the secondary amine 64 showed antiviral activity; also recorded: inactive | – |
| Cc1cc(C(=O)NCc2cc(F)cc(C(F)(F)F)c2)c(C)s1 [Compound 65, N-(3-Fluoro-5-(trifluoromethyl)benzyl)-2,5-dimethylthiophene-3-carboxamide] | – | – | – | – | – | > 100000 | – | > 100000 | fully inactive | – |
| CC(C)c1ccccc1NCCN1CCCCC1 [RL-007, reference compound] | 610 ± 60 | 690 ± 90 | >40 | 1400 | 1500 ± 100 | – | 33 ± 5 | – | – | EC50 ([1]; MDCK, 72 h): 10 µM; EC50 [5]: 530 nM; EC50 (A/H1N1 virus): 600 to 1500 nM; Binding of H1 HA to stem antibody C179 after acidic incubation (pH 5.2) in presence of compound [2]: remained significantly higher; Inhibition of H5 HA cell-cell fusion at 6.3 μM [7]: inactive; Inhibition of H5 HA cell-cell fusion at 25 μM [7]: partially effective; Inhibition of H5 HA cell-cell fusion at 100 μM [7]: complete inhibition; EC50 (H1 HA): 4100 nM; Fold higher activity against A/H1N1 than A/H5N1 pseudovirus [3]: ~127 fold; EC50 [3]: 79 nM |
